This is an account of results in PubChem BioAssay AID1194 (EPA DSSTox, 2008).

The structures appear in SMILES notation. Active and inactive are the calls of the source.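 How the source made its calls: active means chemicals rated mutagenic or weakly mutagenic in the Salmonella bacterial test by one literature review, or positive overall by another; inconclusive means no clear call, values can overlap the other calls; inactive means the rest.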

The data set has as its system Salmonella typhimurium Ames mutagenicity, literature compiled. In words: DSSTox (CPDBAS) Carcinogenic Potency Database Salmonella Mutagenicity. The source says: The Carcinogenic Potency Database (CPDB) is a unique and widely used international resource of the results of over 6500 chronic, long-term animal cancer tests on over 1500 chemical substances. The CPDB provides easy access to the bioassay literature, with qualitative and quantitative analyses of both positive and negative experiments that have been published over the past 50 years in the general literature and by the National Cancer Institute/National Toxicology Program. The CPDB standardizes the diverse literature of cancer bioassays that vary widely in protocol, histopathological examination and nomenclature, and in the published author's choices of what information to provide in their papers. Results are reported in the CPDB for tests in rats, mice, hamsters, dogs, and nonhuman primates, and are based on the most positive result among all experiments for each sex-species. The DSSTox CPDBAS (all species) file incorporates data from the CPDB Summary Tables for the full list of over 1500 chemical substances tested in at least one species.
A chemical is classified within the CPDB as mutagenic, i.e. "active", in the Salmonella assay if it was evaluated overall as either "mutagenic" or "weakly mutagenic" by Zeiger [Zeiger, E. (1997) Genotoxicity Database. In: Gold and Zeiger, Eds. Handbook of Carcinogenic Potency and Genotoxicity Databases. Boca Raton, FL: CRC Press, pp. 687-729. http://potency.berkeley.edu/CRCbook.html] or as overall "positive" by the EPA Gene-Tox Program [Kier et al. (1986) Mutat. Res. 168: 69-240].
As to `c1ccc2occc2c1`, the outcome is “inactive; active”.
The same measure for `O.O=S(=O)([O-])[O-].[Mn+2]`: “inactive; active”.
For `Nc1ccc(Nc2ccccc2)cc1`, the outcome is “inactive; active”.
In the case of `O=C(O)CCCc1ccc(N(CCCl)CCCl)cc1` it was “active; inactive”.
Regarding `Oc1cccc2cccnc12`, the outcome was “active; inactive”.
Turning to `Nc1ccc(O)c([N+](=O)[O-])c1`, the outcome was active.
On to `CCCCCc1cc(O)c2c(c1)OC(C)(C)[C@@H]1CCC(C)=C[C@@H]21`, for which the outcome was “inactive; active”.
With `CC(=O)O[C@@H]1[C@@H](O)C2OC3C=C(C)C(=O)C(O)[C@@]3(CO)[C@]1(C)[C@]21CO1` (some centres undefined), the outcome was “inactive; active”.
As to `CNC(=O)CSP(=S)(OC)OC`, the outcome was active.
In the case of `O=C1CCC(=O)O1` it was “inactive; active”.
In the case of `COc1ccc(N)cc1`, the outcome is “active; inactive”.
On to `COP(=S)(OC)Oc1ccc(SC)c(C)c1`, for which the outcome was “inactive; active”.
As to `Cc1ccc(C)c(N)c1`, the outcome was “active; inactive”.
Take `Nc1ccc(-c2ccccc2)cc1`: the result was active.
Regarding `C/C=C/C=C/C(=O)O`, the outcome was inactive.
The same measure for `CCCCOC(=O)c1ccc(O)cc1`: “inactive; active”; for `ClC(Cl)(Cl)Cl`: “inactive; active”.
Regarding `CCCCCCCCCCCCN(C)N=O`, the result was active.
`c1ccc2c(c1)Nc1ccccc1S2`: the result was inactive.
Take `O=NO`: the outcome was active.
On to `O.O.O.O.O.O.O.O=S(=O)([O-])[O-].[Co+2]`, for which the outcome was active.
On to `Cl/C=C/CCl`, for which the outcome is “active; inactive”.
Regarding `CC(=O)OC[C@]12C[C@H](OC(=O)CC(C)C)C(C)=C[C@H]1O[C@@H]1[C@H](O)[C@@H](OC(C)=O)[C@@]2(C)C12CO2` (some centres undefined), the outcome was inactive.
For the compound `Cc1c(N(C)C)c(=O)n(-c2ccccc2)n1C`, the result was active.
As to `ClC1=C(Cl)C2(Cl)C3C(Cl)C=CC3C1(Cl)C2(Cl)Cl` (centres undefined), the outcome is “inactive; active”.
On to `CC(C)=CCC/C(C)=C/C=O`, for which the outcome was “inactive; active”.
For the compound `CC(C)CON=O`, the outcome was “active; inactive”.
On to `ClCc1cccnc1`, for which the outcome is “active; inactive”.
Regarding `C=C(Cl)Cl`, the outcome was “active; inactive”.
The same measure for `O=Nc1ccc(Nc2ccccc2)cc1`: “active”.
As to `CCBr`, the result was active.
In the case of `COC(=O)C(c1ccccc1)C1CCCCN1` (centres undefined), the result was inactive.
In the case of `Nc1ccc(S(=O)(=O)c2ccc(N)cc2)cc1`, the outcome is “inactive; active”.
Take `CN(C)c1ccc(N=Nc2ccccc2)cc1`: the outcome was “active; inactive”.
The same measure for `O=C(O)c1[nH]n(-c2ccc(S(=O)(=O)O)cc2)c(=O)c1N=Nc1ccc(S(=O)(=O)O)cc1`: “inactive; active”; for `CN(C)C(=O)Cl`: “active”.
For `O=C1CCCCCN1`, the outcome was “inactive; active”.
In the case of `ClCC(Br)CBr` (centres undefined), the outcome is “active; inactive”.
As for `CCOP(=S)(OCC)SC1OCCOC1SP(=S)(OCC)OCC` (centres undefined), the outcome was “active; inactive”.
Turning to `C=O`, the outcome was “active; inactive”.
As for `O=P(O)(O)O`, the outcome is “active; inactive”.
Consider `OCCN(CCO)c1nc(-c2cccs2)nc2ccccc12`, for which the result was inactive.
`CN(C)Nc1nc(-c2ccc([N+](=O)[O-])o2)cs1`: the outcome is “active; inactive”.
In the case of `c1ccc2cc(Nc3ccc(Nc4ccc5ccccc5c4)cc3)ccc2c1`, the outcome was active.
The same measure for `Nc1ccc2ccccc2c1`: “active; inactive”.
Regarding `Cc1ccc2cc3c(ccc4ccccc43)c3c2c1CC3`, the result was active.
Consider `Cc1ccc(N)c(C)c1`, for which the result was active.
For `C=CC`, the outcome is “active; inactive”.
The same measure for `CCCC[N+](=O)[O-]`: “inactive; active”; for `O=[N+]([O-])c1ccc(-c2nc(NCCO)c3ccccc3n2)s1`: “active”.
Take `Nc1ccccc1-c1ccccc1`: the result was active.
In the case of `CC(C)(C)c1cc(O)ccc1O` it was “inactive”; in that of `O=NN1CCC(=O)NC1=O`, “active; inactive”; in that of `Brc1c(Br)c(Br)c(Oc2c(Br)c(Br)c(Br)c(Br)c2Br)c(Br)c1Br`, “inactive; active”.
Turning to `CCCC(Cl)CCC(Cl)CCC(Cl)CCC(Cl)CCC(Cl)CCC(Cl)CCC(C)Cl` (centres undefined), the result was inactive.
The same measure for `O=P(OCC(Br)CBr)(OCC(Br)CBr)OCC(Br)CBr` (centres undefined): “active”.
In the case of `Nc1ccc2c(c1)C(=O)c1ccccc1C2=O` it was “active”; in that of `C#C[C@]1(O)CC[C@H]2[C@@H]3CCC4=C(CCC(=O)C4)[C@H]3CC[C@@]21C`, “inactive; active”; in that of `CCOP(=S)(OCC)Oc1cc(C)nc(C(C)C)n1`, “inactive; active”.
Turning to `ClC1=C(Cl)[C@]2(Cl)[C@@H]3[C@@H]4C[C@@H]([C@H]5O[C@@H]45)[C@@H]3[C@@]1(Cl)C2(Cl)Cl`, the outcome is “inactive; active”.
In the case of `C[C@]12C=CC(=O)C=C1CC[C@@H]1[C@@H]2[C@@H](O)C[C@@]2(C)[C@H]1CC[C@]2(O)C(=O)CO`, the outcome was “inactive; active”.
On to `ClC(Cl)=C(c1ccc(Cl)cc1)c1ccc(Cl)cc1`, for which the outcome is “inactive; active”.
In the case of `ClCc1ccccn1` it was “active”; in that of `C=C(C)[C@H]1CC=C(C)C(=O)C1`, “inactive; active”; in that of `CC(C)=CCl`, “active; inactive”.
As to `Cc1cc(O)c2c(c1O)C(=O)C13C(=C2O)C(=O)C2C(O)C1C1C(O)C3C(=O)C3=C(O)c4c(O)cc(C)c(O)c4C(=O)C321` (centres undefined), the outcome is “inactive; active”.
For `OCC(O)CCl` (centres undefined), the outcome is “active; inactive”.
Consider `CC1=C2C(=CO[C@@H](C)[C@@H]2C)C(=O)C(C(=O)O)=C1O`, for which the outcome is “inactive; active”.
On to `ClC(Br)Br`, for which the outcome was inactive.
Turning to `O=C1NC(=O)C(c2ccccc2)(c2ccccc2)N1`, the outcome was inactive.
In the case of `CC(Cl)CCl` (centres undefined) it was “active; inactive”; in that of `O=c1c(O)c(-c2ccc(O)c(O)c2)oc2cc(O)cc(O)c12`, “active; inactive”; in that of `[Cl-].[Cl-].[Cl-].[Fe+3]`, “inactive”.
For `c1ccoc1`, the result was inactive.
In the case of `Nc1nc(N)c2nc(-c3ccccc3)c(N)nc2n1` it was “inactive; active”; in that of `O=[N+]([O-])c1ccc(-c2nc(N3CCOCC3)c3ccccc3n2)s1`, “active”.
As for `CC[N+](=O)[O-]`, the outcome is “inactive; active”.
The same measure for `c1ccc(C2CO2)cc1` (centres undefined): “active; inactive”; for `O=C(O)COc1ccc(Cl)cc1Cl`: “inactive”; for `O=Cc1ccco1`: “active; inactive”.
For the compound `CCC[CH2][Sn]([CH2]CCC)([CH2]CCC)[O][Sn]([CH2]CCC)([CH2]CCC)[CH2]CCC`, the outcome was inactive.
For the compound `C/C=N/O`, the outcome was inactive.
With `CC1CN(N=O)CC(C)N1N=O` (centres undefined), the outcome was active.
On to `CCOC(=O)N(CC)N=O`, for which the outcome is “active; inactive”.
For `CN(C)N=Nc1ccccc1`, the outcome was active.
Consider `OCCN(CCO)CCO`, for which the outcome was “inactive; active”.
In the case of `NC(=O)CCCCC(N)=O` it was “inactive”; in that of `CC(=O)N(O)c1ccc2c(c1)Cc1ccccc1-2`, “active; inactive”.
On to `O=C(O)C(Cl)(Cl)Cl`, for which the result was inactive.
Take `CN(C)c1ccccc1`: the result was inactive.
For the compound `c1ccc2c(c1)Oc1ccccc1O2`, the outcome was inactive.
For `CC(=O)Nc1nnc(-c2ccc([N+](=O)[O-])o2)s1`, the outcome was active.
For `CC(CN1c2ccccc2Sc2ccccc21)N(C)C` (centres undefined), the result was inactive.
For `CN(C)[C@@H]1C(=O)C(C(N)=O)=C(O)[C@@]2(O)C(=O)C3=C(O)c4c(O)cccc4[C@@](C)(O)[C@H]3[C@H](O)[C@@H]12`, the outcome was inactive.
For `Cc1cc(=O)n(-c2ccccc2)n1C`, the outcome is “inactive; active”.
Take `C#C[C@]1(O)CC[C@H]2[C@@H]3CCc4cc(O)ccc4[C@H]3CC[C@@]21C`: the outcome was inactive.
The same measure for `Cc1c2ccccc2c(C)c2c1ccc1ccccc12`: “active”.
In the case of `O=C1CCc2ccccc2O1`, the outcome was “inactive; active”.
As for `Nc1ccc(N)c2c1C(=O)c1c(N)ccc(N)c1C2=O`, the result was active.
Consider `O=P(OC(CCl)CCl)(OC(CCl)CCl)OC(CCl)CCl`, for which the result was active.
`O=C(O)c1ccccc1`: the outcome was inactive.
In the case of `CCCCOCCO`, the outcome was “inactive; active”.
As to `O=[N+]([O-])c1ccc2c(c1)Cc1ccccc1-2`, the result was active.
In the case of `OCC1CO1` (centres undefined), the outcome is “active; inactive”.
